Source: the NIST ThermoML archive (doi:10.1016/j.jct.2017.08.004)
“And” between values parts separate entries of the source, which are not always exact repeats. Equal values may be shown once.

Assay: molar heat capacity at constant pressure
Conditions: 101.33 kPa, Crystal

OC[C@@H](O)[C@H](O)[C@@H](O)CO [xylitol]
Conditions | molar heat capacity at constant pressure
1 K, relaxation calorimetry | 0.0008271 J/K/mol
1.922 K, relaxation calorimetry | 0.005594 J/K/mol
2 K, relaxation calorimetry | 0.006331 J/K/mol
2.139 K, relaxation calorimetry | 0.007737 J/K/mol
2.374 K, relaxation calorimetry | 0.01068 J/K/mol
2.635 K, relaxation calorimetry | 0.0145 J/K/mol
2.93 K, relaxation calorimetry | 0.02028 J/K/mol
3 K, relaxation calorimetry | 0.02164 J/K/mol
3.25 K, relaxation calorimetry | 0.02792 J/K/mol
3.603 K, relaxation calorimetry | 0.03808 J/K/mol
4 K, relaxation calorimetry | 0.05265 J/K/mol and 0.05269 J/K/mol
4.437 K, relaxation calorimetry | 0.07193 J/K/mol
4.924 K, relaxation calorimetry | 0.1019 J/K/mol
5 K, relaxation calorimetry | 0.1065 J/K/mol
5.466 K, relaxation calorimetry | 0.1404 J/K/mol
6 K, relaxation calorimetry | 0.191 J/K/mol
6.063 K, relaxation calorimetry | 0.1974 J/K/mol
6.726 K, relaxation calorimetry | 0.2771 J/K/mol
7 K, relaxation calorimetry | 0.3152 J/K/mol
7.46 K, relaxation calorimetry | 0.3882 J/K/mol
8 K, relaxation calorimetry | 0.4898 J/K/mol
8.276 K, relaxation calorimetry | 0.5472 J/K/mol
9 K, relaxation calorimetry | 0.7186 J/K/mol
9.181 K, relaxation calorimetry | 0.7649 J/K/mol
10 K, relaxation calorimetry | 1.004 J/K/mol
10.2 K, relaxation calorimetry | 1.063 J/K/mol
11.29 K, relaxation calorimetry | 1.456 J/K/mol
12.52 K, relaxation calorimetry | 1.978 J/K/mol
13.9 K, relaxation calorimetry | 2.652 J/K/mol
15 K, relaxation calorimetry | 3.243 J/K/mol
15.43 K, relaxation calorimetry | 3.486 J/K/mol
17.11 K, relaxation calorimetry | 4.536 J/K/mol
19 K, relaxation calorimetry | 5.817 J/K/mol
20 K, relaxation calorimetry | 6.537 J/K/mol
21.08 K, relaxation calorimetry | 7.334 J/K/mol
23.4 K, relaxation calorimetry | 9.137 J/K/mol
25 K, relaxation calorimetry | 10.45 J/K/mol
25.98 K, relaxation calorimetry | 11.24 J/K/mol
28.85 K, relaxation calorimetry | 13.71 J/K/mol
30 K, relaxation calorimetry | 14.71 J/K/mol
32.02 K, relaxation calorimetry | 16.53 J/K/mol
35 K, relaxation calorimetry | 19.23 J/K/mol
35.54 K, relaxation calorimetry | 19.78 J/K/mol
39.45 K, relaxation calorimetry | 23.43 J/K/mol
40 K, relaxation calorimetry | 23.95 J/K/mol
43.77 K, relaxation calorimetry | 27.59 J/K/mol
45 K, relaxation calorimetry | 28.76 J/K/mol
48.58 K, relaxation calorimetry | 32.08 J/K/mol
50 K, relaxation calorimetry | 33.53 J/K/mol
53.91 K, relaxation calorimetry | 37.13 J/K/mol
55 K, relaxation calorimetry | 38.17 J/K/mol
59.82 K, relaxation calorimetry | 42.74 J/K/mol
60 K, relaxation calorimetry | 42.76 J/K/mol
65 K, relaxation calorimetry | 47.51 J/K/mol
66.39 K, relaxation calorimetry | 48.78 J/K/mol
70 K, relaxation calorimetry | 52.03 J/K/mol
73.7 K, relaxation calorimetry | 55.27 J/K/mol
75 K, relaxation calorimetry | 56.38 J/K/mol
80 K, relaxation calorimetry | 60.61 J/K/mol
81.8 K, relaxation calorimetry | 62.47 J/K/mol
85 K, relaxation calorimetry | 64.74 J/K/mol
90 K, relaxation calorimetry | 68.78 J/K/mol
90.79 K, relaxation calorimetry | 69.45 J/K/mol
95 K, relaxation calorimetry | 72.72 J/K/mol
100 K, relaxation calorimetry | 76.57 J/K/mol
100.73 K, relaxation calorimetry | 76.61 J/K/mol
110 K, relaxation calorimetry | 84.01 J/K/mol
110.86 K, relaxation calorimetry | 84.59 J/K/mol
120 K, relaxation calorimetry | 91.15 J/K/mol
120.92 K, relaxation calorimetry | 91.94 J/K/mol
130 K, relaxation calorimetry | 98.03 J/K/mol
130.99 K, relaxation calorimetry | 98.86 J/K/mol
140 K, relaxation calorimetry | 104.68 J/K/mol
141.06 K, relaxation calorimetry | 105.29 J/K/mol
150 K, relaxation calorimetry | 111.17 J/K/mol
151.18 K, relaxation calorimetry | 112.01 J/K/mol
160 K, relaxation calorimetry | 117.52 J/K/mol
161.27 K, relaxation calorimetry | 118.23 J/K/mol
170 K, relaxation calorimetry | 123.79 J/K/mol
171.37 K, relaxation calorimetry | 124.62 J/K/mol
180 K, relaxation calorimetry | 130 J/K/mol
181.44 K, relaxation calorimetry | 131.13 J/K/mol
188.15 K, Small sample (50 mg) DSC | 129.73 J/K/mol
189.15 K, Small sample (50 mg) DSC | 130.13 J/K/mol
190 K, relaxation calorimetry | 136.19 J/K/mol
190.15 K, Small sample (50 mg) DSC | 131.3 J/K/mol
191.15 K, Small sample (50 mg) DSC | 132.22 J/K/mol
191.51 K, relaxation calorimetry | 137.32 J/K/mol
192.15 K, Small sample (50 mg) DSC | 132.97 J/K/mol
193.15 K, Small sample (50 mg) DSC | 133.63 J/K/mol
194.15 K, Small sample (50 mg) DSC | 134.85 J/K/mol
195.15 K, Small sample (50 mg) DSC | 136.05 J/K/mol
196.15 K, Small sample (50 mg) DSC | 137.13 J/K/mol
197.15 K, Small sample (50 mg) DSC | 137.99 J/K/mol
198.15 K, Small sample (50 mg) DSC | 138.87 J/K/mol
199.15 K, Small sample (50 mg) DSC | 139.73 J/K/mol
200 K, relaxation calorimetry | 142.38 J/K/mol
200.15 K, Small sample (50 mg) DSC | 140.65 J/K/mol
201.15 K, Small sample (50 mg) DSC | 141.4 J/K/mol
201.63 K, relaxation calorimetry | 143.25 J/K/mol
202.15 K, Small sample (50 mg) DSC | 142.18 J/K/mol
203.15 K, Small sample (50 mg) DSC | 143.08 J/K/mol
204.15 K, Small sample (50 mg) DSC | 143.76 J/K/mol
205.15 K, Small sample (50 mg) DSC | 144.29 J/K/mol
206.15 K, Small sample (50 mg) DSC | 145.08 J/K/mol
207.15 K, Small sample (50 mg) DSC | 145.87 J/K/mol
208.15 K, Small sample (50 mg) DSC | 146.4 J/K/mol
209.15 K, Small sample (50 mg) DSC | 147.11 J/K/mol
210 K, relaxation calorimetry | 148.6 J/K/mol
210.15 K, Small sample (50 mg) DSC | 147.83 J/K/mol
211.15 K, Small sample (50 mg) DSC | 148.54 J/K/mol
211.72 K, relaxation calorimetry | 149.26 J/K/mol
212.15 K, Small sample (50 mg) DSC | 149.22 J/K/mol
213.15 K, Small sample (50 mg) DSC | 149.76 J/K/mol
214.15 K, Small sample (50 mg) DSC | 150.56 J/K/mol
215.15 K, Small sample (50 mg) DSC | 151.28 J/K/mol
216.15 K, Small sample (50 mg) DSC | 152.02 J/K/mol
217.15 K, Small sample (50 mg) DSC | 152.63 J/K/mol
218.15 K, Small sample (50 mg) DSC | 153.29 J/K/mol
219.15 K, Small sample (50 mg) DSC | 154.13 J/K/mol
220 K, relaxation calorimetry | 154.86 J/K/mol
220.15 K, Small sample (50 mg) DSC | 154.86 J/K/mol
221.15 K, Small sample (50 mg) DSC | 155.65 J/K/mol
221.81 K, relaxation calorimetry | 156.12 J/K/mol
222.15 K, Small sample (50 mg) DSC | 156.3 J/K/mol
223.15 K, Small sample (50 mg) DSC | 157.01 J/K/mol
224.15 K, Small sample (50 mg) DSC | 157.66 J/K/mol
225.15 K, Small sample (50 mg) DSC | 158.24 J/K/mol
226.15 K, Small sample (50 mg) DSC | 158.84 J/K/mol
227.15 K, Small sample (50 mg) DSC | 159.41 J/K/mol
228.15 K, Small sample (50 mg) DSC | 160.16 J/K/mol
229.15 K, Small sample (50 mg) DSC | 160.62 J/K/mol
230 K, relaxation calorimetry | 161.19 J/K/mol
230.15 K, Small sample (50 mg) DSC | 161.2 J/K/mol
231.15 K, Small sample (50 mg) DSC | 162.12 J/K/mol
231.89 K, relaxation calorimetry | 162.24 J/K/mol
232.15 K, Small sample (50 mg) DSC | 162.73 J/K/mol
233.15 K, Small sample (50 mg) DSC | 163.22 J/K/mol
234.15 K, Small sample (50 mg) DSC | 164.01 J/K/mol
235.15 K, Small sample (50 mg) DSC | 164.81 J/K/mol
236.15 K, Small sample (50 mg) DSC | 165.55 J/K/mol
237.15 K, Small sample (50 mg) DSC | 166.14 J/K/mol
238.15 K, Small sample (50 mg) DSC | 166.88 J/K/mol
239.15 K, Small sample (50 mg) DSC | 167.65 J/K/mol
240 K, relaxation calorimetry | 167.6 J/K/mol
240.15 K, Small sample (50 mg) DSC | 168.23 J/K/mol
241.15 K, Small sample (50 mg) DSC | 168.92 J/K/mol
241.89 K, relaxation calorimetry | 168.66 J/K/mol
242.15 K, Small sample (50 mg) DSC | 169.52 J/K/mol
243.15 K, Small sample (50 mg) DSC | 170.22 J/K/mol
244.15 K, Small sample (50 mg) DSC | 170.79 J/K/mol
245.15 K, Small sample (50 mg) DSC | 171.35 J/K/mol
246.15 K, Small sample (50 mg) DSC | 172.07 J/K/mol
247.15 K, Small sample (50 mg) DSC | 172.62 J/K/mol
248.15 K, Small sample (50 mg) DSC | 173.32 J/K/mol
249.15 K, Small sample (50 mg) DSC | 173.97 J/K/mol
250 K, relaxation calorimetry | 174.1 J/K/mol
250.15 K, Small sample (50 mg) DSC | 174.75 J/K/mol
251.15 K, Small sample (50 mg) DSC | 175.38 J/K/mol
252.05 K, relaxation calorimetry | 175.66 J/K/mol
252.15 K, Small sample (50 mg) DSC | 176.09 J/K/mol
253.15 K, Small sample (50 mg) DSC | 176.77 J/K/mol
254.15 K, Small sample (50 mg) DSC | 177.72 J/K/mol
255.15 K, Small sample (50 mg) DSC | 178.41 J/K/mol
256.15 K, Small sample (50 mg) DSC | 179.25 J/K/mol
257.15 K, Small sample (50 mg) DSC | 180.21 J/K/mol
258.15 K, Small sample (50 mg) DSC | 180.68 J/K/mol
259.15 K, Small sample (50 mg) DSC | 181.27 J/K/mol
260 K, relaxation calorimetry | 180.7 J/K/mol
260.15 K, Small sample (50 mg) DSC | 182.15 J/K/mol
